Results from patent publication US11382848B2, “Compounds reducing malodour perception and the use thereof” (CHEMCOM S.A., priority 2017, dated 2022).

molecular target: T1, human olfactory receptor OR7D4 (Homo sapiens, UniProt Q8NG98); test: OR7D4 luciferase gene reporter assay (antagonism of agonist-induced activation); format: cell-based; conditions: dose-response, luciferase assay; half decrease of the luciferase production obtained without antagonist; androstenone at 31.6 micromolar
T1 construct: transfected with a plasmid containing CRE-luciferase and a plasmid containing OR7D4; expressed in transfected cells; host or cells: HEK293T stably expressing olfactory chaperone proteins of the RTP family
T1 sequence (Q8NG98 1-312): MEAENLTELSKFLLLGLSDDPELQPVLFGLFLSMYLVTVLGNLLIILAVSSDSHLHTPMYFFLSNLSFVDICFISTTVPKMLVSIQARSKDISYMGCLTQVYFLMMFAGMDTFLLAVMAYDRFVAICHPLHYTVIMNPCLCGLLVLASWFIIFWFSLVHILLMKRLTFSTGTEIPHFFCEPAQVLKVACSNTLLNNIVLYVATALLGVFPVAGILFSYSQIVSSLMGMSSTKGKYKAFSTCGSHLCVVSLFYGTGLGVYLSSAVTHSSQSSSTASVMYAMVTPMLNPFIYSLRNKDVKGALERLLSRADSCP
Method: Cells were maintained in minimal essential medium (EMEM, Lonza) containing 10% fetal bovine serum (M10). HEK293T stably expressing olfactory chaperone proteins from the RTP family as described in WO 2006/002161 (introduced here as a reference) were generated by transfecting HEK293T cells with expression vector containing the chaperone gene sequences and a resistance gene to puromycin, using Lipofectamine 2000. A recombinant cell population was selected by adding 10 μg/ml of puromycin into the culture medium. Monoclonal populations were further obtained by limit dilution procedure. Briefly, a cell suspension was diluted to contain 1 cell per ml and this dilution was dispatched in poly-D-lysine-coated 96 well plates (200 μl of dilution per well). After 5 days of culture, the presence and number of cell colonies per well was checked under a phase contrast microscope. After 5 additional days of culture, wells containing a single colony were harvested and each collected population was amplified independently.
The 5-alpha-androst-16-ene-3-one, used as an agonist of the human olfactory receptor OR7D4 and the tested molecules were diluted at a concentration of 1 mole/litre (M) into dimethyl sulfoxide (DMSO) to generate stock solutions.
For concentration-response analysis, serial dilutions of the tested molecules were prepared from stock solutions in EMEM plated into 96-well plates.
Briefly, cells were plated on poly-D-lysine-coated 96-well plates (BD Bioscience, Erembodegem-Dorp, Belgium) and transfected with a plasmid containing CRE-luciferase and a plasmid containing OR7D4. Sixteen hours after transfection, the culture medium was replaced by serum-free EMEM containing the tested ligands at a determined concentration. After four hours of incubation at 37° C. degree, cells were lysed and processed for luminescence measurement according to the manufacturer's protocols. Luminescence emission was recorded on a Spectra Max M5 reader (Molecular Devices, Sunnyvale, Calif.). Results were expressed as percentage of the response induced by 10 μM of the adenylate cyclase activator Forskolin.
The ability of the compounds of the invention to inhibit the activity of androstenone on OR7D4 receptor was assessed by the luciferase assay described above.
To determine whether a molecule antagonizes OR7D4, this compound was introduced in the incubation medium of the Luciferase assay described above at a concentration of either 316 μM, 100 μM or 31.6 μM, along with the known activator of the receptor 5α-androst-16-en-3-one at a concentration of 31.6 μM. Molecules were considered as “hits” i.e., as having an antagonist effect on the receptor, if they induced a decrease of at least 50% of the luciferase production elicited upon activation of OR7D4 by 5α-androst-16-en-3-one.
Putative antagonist molecule libraries containing compound 1 and other types of molecules were used to identify antagonist of the receptor OR7D4. The screening campaign was performed on the OR7D4 with a series of 112 putative antagonist molecules. In this screening campaign, compound 1 was identified as a hit.
The compound 1 was further confirmed as antagonist of OR7D4 by performing dose-response analysis using the luciferase assay. Different concentrations of compound 1, ranging from 31.6 nM to 1 mM were tested on HEK293 cell expressing OR7D4 and stimulated with 31.6 μM of 5α-androst-16-en-3-one.
The antagonistic property of compound 1 on OR7D4 was further confirmed by measuring the response of the OR7D4 to 5α-androsta-4,16-dien-3-one in presence of compound 1, using the luciferase assay as describe hereinabove. The observed inhibition was in the same range as the one observed when stimulating the receptor with 5α-androst-16-en-3-one.
To further explore the antagonism on OR7D4, a series of compounds structurally related to compound 1 were synthesized and assessed as antagonists of OR7D4 by dose-response analysis using the luciferase assay. […]

| SMILES | IC50 [µM] |
| --- | --- |
| CCCCCCC(/C=C/C(=O)O)=C\c1ccccc1 [Compound 22] | 75 |
| CCCc1ccccc1/C=C/C=C/C=O [Compound 37, (2E,4E)-5-(2-propylphenyl)penta-2,4-dienal] | 126 |
| CCCC(/C=C(\C)CO)=C\c1ccccc1 [Compound 35] | 53 |
| CCCCCC(/C=C(\C)C=O)=C\c1ccccc1 [Compound 40] | 29 |
| CCCc1ccccc1/C=C/C=C/CO [Compound 32, (2E,4E)-5-(2-propylphenyl)penta-2,4-dien-1-ol] | 126 |
| CCOC(=O)/C(C)=C/C=C/c1cccc(OC)c1 [Compound 2, ethyl (2E,4E)-5-(3-methoxyphenyl)-2-methylpenta-2,4-dienoate] | 25 |
| CCCCCCC(=C\c1ccc(C#N)cc1)/C=C(\C)C(=O)OCC [Compound 7, ethyl (E)-4-((E)-4-cyanobenzylidene)-2-methyldec-2-enoate] | 13 |
| CCCCCCC(/C=C(\C)COCC)=C\c1ccccc1 [Compound 43, ((E)-2-((E)-3-ethoxy-2-methylprop-1-en-1-yl)oct-1-en-1-yl)benzene] | 126 |
| CCCCCCC(=C\c1ccccc1)/C=C(\C)C(N)=O [Compound 23, (E)-4-((E)-benzylidene)-2-methyldec-2-enamide] | 1 |
| CCCCCC(/C=C/C(=O)OCC)=C\c1ccc(F)cc1 [Compound 45, ethyl (E)-4-((E)-4-fluorobenzylidene)non-2-enoate] | 4 |
| CCCCCCC(=C\c1ccccc1)/C=C(\C)C(=O)N(C)C [Compound 28, (E)-4-((E)-benzylidene)-N,N,2-trimethyldec-2-enamide] | 2 |
| CCOC(=O)/C(C)=C/C(=C/c1ccccc1)CC1CCCC1 [Compound 12] | 8 |
| CCCCCCC(=C\c1ccc(C#N)cc1)/C=C(\C)C(=O)O [Compound 19, (E)-4-((E)-4-cyanobenzylidene)-2-methyldec-2-enoic Acid] | 45 |
| CCCCCCC(/C=C/CO)=C\c1ccc(F)cc1 [Compound 33, (E)-4-((E)-4-fluorobenzylidene)dec-2-en-1-ol] | 18 |
| CCCC(/C=C(\C)C=O)=C\c1ccccc1 [Compound 41] | 187 |
| COc1cccc(/C=C/C=C(\C)C=O)c1 [Compound 36, (2E,4E)-5-(3-methoxyphenyl)-2-methylpenta-2,4-dienal] | 79 |
| CCCCCCC(/C=C/C#N)=C\c1ccccc1 [Compound 16, 4-benzylidenedec-2-enenitrile] | 8 |
| COc1cccc(/C=C/C=C(\C)CO)c1 [Compound 31, (2E,4E)-5-(3-methoxyphenyl)-2-methylpenta-2,4-dien-1-ol] | 63 |
| CCCCCCC(/C=C/C(=O)OCC)=C\c1ccc(F)cc1 [Compound 5, ethyl (E)-4-((E)-4-fluorobenzylidene)dec-2-enoate] | 14 |
| CCOc1ccccc1/C=C(/C=C(\C)C(=O)O)CC [Compound 20] | 32 |
| CCCCCCC(/C=C(\C)COCC)=C\c1ccc(F)cc1 [Compound 44, 1-((E)-2-((E)-3-ethoxy-2-methylprop-1-en-1-yl)oct-1-en-1-yl)-4-fluorobenzene] | 22 |
| CCCCCCC(/C=C(\C)C#N)=C\c1ccccc1 [Compound 17] | 12 |
| CCCCCC(/C=C/C(=O)OCC)=C\c1ccccc1 [Compound 14] | 14 |
| CCCCCCC(=C\c1ccccc1)/C=C(\C)C(=O)NC [Compound 24, (E)-4-((E)-benzylidene)-N,2-dimethyldec-2-enamide] | 2 |
| CCCCCCC(=C\c1ccccc1)/C=C(\C)C(C)=O [Compound 29, 5-benzylidene-3-methylundec-3-en-2-one] | 1 |
| CCCC(/C=C/C(=O)OCC)=C\c1ccccc1 [Compound 15] | 85 |
| CCCCCCC(/C=C/C(C)=O)=C\c1ccccc1 [Compound 30, (E)-5-((E)-benzylidene)undec-3-en-2-one] | 6 |
| C=CCCCCC(=C\c1ccccc1)/C=C(\C)C(=O)OCC [Compound 8] | 1 |
